Results from patent publication US20230416232A1, “PYRIMIDINE COMPOUNDS, COMPOSITIONS, AND MEDICINAL APPLICATIONS THEREOF” (Blueprint Medicines Corporation, priority 2020, published 2023).
Where two headings read alike, the source gives them in different places.

Legend:
Assay type in all cases: cell-based
[1] = molecular target: EGFR(D770_N771insSVD) expressing Ba/F3 stable cell line (Homo sapiens, UniProt P00533, DUP768-770, cells depend on it); test: Cellular proliferation (Alamar Blue) assay, EGFR(D770_N771insSVD) Ba/F3
EGFR(D770_N771insSVD) expressing Ba/F3 stable cell line, sequence (P00533 with tags, fused parts or gaps DUP768-770): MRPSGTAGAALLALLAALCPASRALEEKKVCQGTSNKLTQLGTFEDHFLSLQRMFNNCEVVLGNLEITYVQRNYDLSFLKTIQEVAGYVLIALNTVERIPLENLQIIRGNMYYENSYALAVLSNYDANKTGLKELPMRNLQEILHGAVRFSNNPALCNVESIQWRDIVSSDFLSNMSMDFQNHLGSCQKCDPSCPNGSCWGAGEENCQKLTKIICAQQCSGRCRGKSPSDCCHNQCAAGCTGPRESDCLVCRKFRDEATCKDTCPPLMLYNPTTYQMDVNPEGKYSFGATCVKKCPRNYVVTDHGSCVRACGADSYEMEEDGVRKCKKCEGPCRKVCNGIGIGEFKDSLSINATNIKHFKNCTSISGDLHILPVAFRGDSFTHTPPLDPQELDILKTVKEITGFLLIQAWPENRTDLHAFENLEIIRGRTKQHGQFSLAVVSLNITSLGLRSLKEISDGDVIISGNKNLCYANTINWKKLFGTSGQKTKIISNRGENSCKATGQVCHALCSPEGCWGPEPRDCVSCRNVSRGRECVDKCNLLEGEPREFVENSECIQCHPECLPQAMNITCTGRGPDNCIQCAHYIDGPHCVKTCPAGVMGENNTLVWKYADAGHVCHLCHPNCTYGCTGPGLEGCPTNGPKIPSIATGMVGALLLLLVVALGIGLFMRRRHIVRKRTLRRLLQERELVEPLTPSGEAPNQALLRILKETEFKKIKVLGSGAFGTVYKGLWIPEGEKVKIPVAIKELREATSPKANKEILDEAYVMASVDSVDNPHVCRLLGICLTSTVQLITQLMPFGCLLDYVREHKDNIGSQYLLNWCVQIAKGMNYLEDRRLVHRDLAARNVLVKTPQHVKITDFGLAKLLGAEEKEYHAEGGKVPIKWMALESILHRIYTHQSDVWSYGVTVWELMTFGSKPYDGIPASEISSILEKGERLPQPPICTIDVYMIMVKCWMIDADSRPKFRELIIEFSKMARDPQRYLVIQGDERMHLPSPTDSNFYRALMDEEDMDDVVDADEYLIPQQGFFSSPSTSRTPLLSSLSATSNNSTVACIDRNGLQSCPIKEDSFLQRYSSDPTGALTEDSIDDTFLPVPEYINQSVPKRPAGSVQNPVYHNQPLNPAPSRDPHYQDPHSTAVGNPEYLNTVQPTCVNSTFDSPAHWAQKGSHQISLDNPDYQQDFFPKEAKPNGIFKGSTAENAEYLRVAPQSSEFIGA
In short: (§1)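 Seed A431 at 5000 and Ba/F3 at 15,000 cells/well in 10% FBS medium and incubate 16-18 h at 37 °C, 5% CO2. Add compound (final 10-0.0005 μM, 3-fold steps) or DMSO for 72 h. Add Alamar Blue and read after 3 h.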

[2] = molecular target: EGFR (A767_dupASV) expressing Ba/F3 stable cell line (Homo sapiens, UniProt P00533, DUP767-769, cells depend on it); test: Cellular proliferation (Alamar Blue) assay, EGFR (A767_dupASV) Ba/F3
EGFR (A767_dupASV) expressing Ba/F3 stable cell line, sequence (P00533 with tags, fused parts or gaps DUP767-769): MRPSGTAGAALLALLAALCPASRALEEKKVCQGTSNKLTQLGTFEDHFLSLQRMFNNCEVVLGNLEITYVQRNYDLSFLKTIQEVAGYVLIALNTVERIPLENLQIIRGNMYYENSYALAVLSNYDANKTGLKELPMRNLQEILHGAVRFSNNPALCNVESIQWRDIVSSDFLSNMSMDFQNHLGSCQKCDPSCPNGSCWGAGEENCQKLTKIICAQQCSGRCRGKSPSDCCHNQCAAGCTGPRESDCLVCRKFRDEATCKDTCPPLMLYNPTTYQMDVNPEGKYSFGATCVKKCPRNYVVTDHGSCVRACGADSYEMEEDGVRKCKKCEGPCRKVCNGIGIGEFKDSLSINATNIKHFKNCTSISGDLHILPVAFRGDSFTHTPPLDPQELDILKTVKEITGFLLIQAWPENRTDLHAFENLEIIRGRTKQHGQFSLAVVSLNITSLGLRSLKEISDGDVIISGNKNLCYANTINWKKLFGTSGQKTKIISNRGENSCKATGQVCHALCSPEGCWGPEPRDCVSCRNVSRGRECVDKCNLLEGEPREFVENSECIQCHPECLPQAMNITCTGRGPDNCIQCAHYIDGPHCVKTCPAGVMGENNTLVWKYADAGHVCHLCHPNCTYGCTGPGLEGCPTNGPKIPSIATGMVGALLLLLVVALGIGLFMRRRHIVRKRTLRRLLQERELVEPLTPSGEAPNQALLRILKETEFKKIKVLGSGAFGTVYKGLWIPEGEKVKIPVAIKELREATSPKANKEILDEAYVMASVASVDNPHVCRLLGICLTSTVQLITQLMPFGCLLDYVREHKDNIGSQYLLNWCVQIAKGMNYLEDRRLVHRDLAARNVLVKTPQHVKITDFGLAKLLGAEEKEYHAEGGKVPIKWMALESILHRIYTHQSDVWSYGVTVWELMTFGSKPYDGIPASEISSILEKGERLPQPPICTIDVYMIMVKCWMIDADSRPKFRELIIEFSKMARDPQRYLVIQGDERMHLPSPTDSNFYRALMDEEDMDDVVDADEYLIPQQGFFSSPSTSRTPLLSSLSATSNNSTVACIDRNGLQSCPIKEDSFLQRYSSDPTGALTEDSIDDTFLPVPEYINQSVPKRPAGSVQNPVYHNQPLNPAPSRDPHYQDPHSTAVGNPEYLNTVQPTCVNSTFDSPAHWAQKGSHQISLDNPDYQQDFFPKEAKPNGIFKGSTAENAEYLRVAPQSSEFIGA
In short: as §1

A431 cells = test: Cellular proliferation (Alamar Blue) assay, A431 cells; conditions: Homo sapiens, A-431, 72 h, read-out: A431 IC50
In short: as §1

[3] = molecular target: EGFR (H773insNPH) expressing Ba/F3 stable cell line (Homo sapiens, UniProt P00533, DUP771-773, cells depend on it); test: Cellular proliferation (Alamar Blue) assay, EGFR (H773insNPH) Ba/F3
EGFR (H773insNPH) expressing Ba/F3 stable cell line, sequence (P00533 with tags, fused parts or gaps DUP771-773): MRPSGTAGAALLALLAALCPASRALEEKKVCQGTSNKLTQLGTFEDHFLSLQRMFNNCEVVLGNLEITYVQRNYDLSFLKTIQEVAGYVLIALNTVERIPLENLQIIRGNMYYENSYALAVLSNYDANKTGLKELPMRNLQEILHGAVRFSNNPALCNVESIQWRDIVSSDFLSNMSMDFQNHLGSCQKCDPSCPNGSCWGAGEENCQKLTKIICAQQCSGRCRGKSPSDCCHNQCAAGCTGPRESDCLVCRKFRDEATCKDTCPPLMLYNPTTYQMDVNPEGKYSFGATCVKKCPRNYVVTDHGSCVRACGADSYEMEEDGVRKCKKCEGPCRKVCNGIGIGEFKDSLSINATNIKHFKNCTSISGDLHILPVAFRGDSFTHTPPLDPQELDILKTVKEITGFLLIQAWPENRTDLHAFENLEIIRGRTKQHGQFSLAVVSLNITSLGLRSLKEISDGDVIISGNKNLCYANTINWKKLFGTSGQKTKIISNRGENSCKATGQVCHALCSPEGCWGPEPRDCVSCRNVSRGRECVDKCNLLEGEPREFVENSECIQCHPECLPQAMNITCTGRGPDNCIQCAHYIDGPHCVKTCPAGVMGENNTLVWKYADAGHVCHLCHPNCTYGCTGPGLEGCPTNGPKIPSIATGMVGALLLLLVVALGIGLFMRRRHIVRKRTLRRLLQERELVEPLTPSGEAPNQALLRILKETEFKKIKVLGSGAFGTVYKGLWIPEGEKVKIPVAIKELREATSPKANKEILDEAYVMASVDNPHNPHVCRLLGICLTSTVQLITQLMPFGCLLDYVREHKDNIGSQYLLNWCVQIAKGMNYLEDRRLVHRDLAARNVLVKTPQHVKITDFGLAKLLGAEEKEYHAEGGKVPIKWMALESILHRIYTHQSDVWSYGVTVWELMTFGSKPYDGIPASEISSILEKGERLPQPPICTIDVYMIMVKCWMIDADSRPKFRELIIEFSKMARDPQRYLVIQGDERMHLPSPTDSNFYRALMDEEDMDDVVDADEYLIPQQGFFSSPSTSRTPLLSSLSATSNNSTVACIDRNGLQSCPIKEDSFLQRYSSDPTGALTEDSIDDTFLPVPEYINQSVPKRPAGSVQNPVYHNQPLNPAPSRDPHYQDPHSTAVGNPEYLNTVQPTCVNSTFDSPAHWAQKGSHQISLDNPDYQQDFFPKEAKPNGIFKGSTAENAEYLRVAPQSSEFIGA
In short: as §1

[4] = molecular target: HER2 (A775_G776insYVMA) expressing Ba/F3 stable cell line (Homo sapiens, UniProt P04626, DUP772-775, cells depend on it); test: Cellular proliferation (Alamar Blue) assay, HER2 (A775_G776insYVMA) Ba/F3; conditions: read-out: YVMA IC50
HER2 (A775_G776insYVMA) expressing Ba/F3 stable cell line, sequence (P04626 with tags, fused parts or gaps DUP772-775): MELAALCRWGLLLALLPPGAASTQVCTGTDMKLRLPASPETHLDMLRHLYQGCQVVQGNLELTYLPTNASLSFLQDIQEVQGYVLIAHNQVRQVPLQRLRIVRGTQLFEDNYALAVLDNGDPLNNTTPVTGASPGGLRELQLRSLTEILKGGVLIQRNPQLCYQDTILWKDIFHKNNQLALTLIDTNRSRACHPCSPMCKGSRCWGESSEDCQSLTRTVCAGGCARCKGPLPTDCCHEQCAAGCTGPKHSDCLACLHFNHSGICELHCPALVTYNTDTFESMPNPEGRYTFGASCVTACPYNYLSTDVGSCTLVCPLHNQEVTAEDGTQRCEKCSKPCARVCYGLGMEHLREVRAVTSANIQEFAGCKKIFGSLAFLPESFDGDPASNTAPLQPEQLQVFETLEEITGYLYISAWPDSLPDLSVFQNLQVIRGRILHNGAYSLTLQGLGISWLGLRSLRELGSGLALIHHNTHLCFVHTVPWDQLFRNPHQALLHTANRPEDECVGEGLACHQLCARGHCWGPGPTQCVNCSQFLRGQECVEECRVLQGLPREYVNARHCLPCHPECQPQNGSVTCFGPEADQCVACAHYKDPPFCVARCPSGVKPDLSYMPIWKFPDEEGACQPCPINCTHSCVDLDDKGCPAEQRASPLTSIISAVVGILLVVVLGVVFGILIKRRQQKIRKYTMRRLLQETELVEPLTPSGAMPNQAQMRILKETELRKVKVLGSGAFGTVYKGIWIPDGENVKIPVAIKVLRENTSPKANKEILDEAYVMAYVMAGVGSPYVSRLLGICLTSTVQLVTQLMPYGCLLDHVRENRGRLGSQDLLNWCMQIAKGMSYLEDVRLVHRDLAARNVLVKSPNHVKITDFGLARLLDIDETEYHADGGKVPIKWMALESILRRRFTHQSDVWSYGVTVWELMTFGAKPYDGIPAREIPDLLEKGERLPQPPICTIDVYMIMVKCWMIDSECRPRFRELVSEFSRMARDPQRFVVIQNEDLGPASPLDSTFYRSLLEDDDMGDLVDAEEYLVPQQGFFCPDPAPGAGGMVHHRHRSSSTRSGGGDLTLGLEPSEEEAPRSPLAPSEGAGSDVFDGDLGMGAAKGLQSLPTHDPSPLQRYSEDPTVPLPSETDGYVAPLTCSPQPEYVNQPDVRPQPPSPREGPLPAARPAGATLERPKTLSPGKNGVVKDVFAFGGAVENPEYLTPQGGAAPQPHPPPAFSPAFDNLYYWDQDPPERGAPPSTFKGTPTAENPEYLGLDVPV
In short: as §1

[5] = HER2 (A775_G776insYVMA) Ba/F3 cells, 72 hr, Alamar Blue

SMILES | GI50 ([1]; 72 hr, read-out: D770 IC50) [nM] | GI50 ([2]; 72 hr, read-out: A767 IC50) [nM] | IC50 (A431 cells; A431 cells, 72 hr, Alamar Blue) [nM] | GI50 ([3]; 72 hr, read-out: NPH IC50) [nM] | GI50 [4, 5] [nM] | GI50 ([1]; read-out: D770 IC50, 72 hr) [nM] | GI50 ([2]; read-out: A767 IC50, 72 hr) [nM] | IC50 (A431 cells) [nM] | GI50 ([3]; read-out: NPH IC50, 72 hr) [nM] | GI50 ([4]; her2 (a775_g776insyvma) expressing ba/f3 stable cell line) [nM]
C=CC(=O)Nc1ccc(F)c(Nc2nc(Nc3cnn(C4COC4)c3)ncc2-c2ccc(Cl)c(Cl)c2)c1 [Compound 56, N-(3-((5-(3,4-dichlorophenyl)-2-((1-(oxetan-3-yl)-1H-pyrazol-4-yl)amino)pyrimidin-4-yl)amino)-4-fluorophenyl)acrylamide] | 104 | 95 | 587 | 84 | 118 |  |  |  |  | 
C=CC(=O)Nc1ccc(F)c(Nc2nc(Nc3cnn(CCN(C)C)c3)ncc2-c2ccc(F)c(Cl)c2)c1 [Compound 57, N-(3-((5-(3-chloro-4-fluorophenyl)-2-((1-(2-(dimethylamino)ethyl)-1H-pyrazol-4-yl)amino)pyrimidin-4-yl)amino)-4-fluorophenyl)acrylamide] |  |  |  |  |  | 111 | 207 | 699 | 62 | 112
C=CC(=O)Nc1ccc(F)c(Nc2nc(Nc3cnn(CCN(C)C)c3)ncc2-c2ccc(Cl)c(Cl)c2)c1 [Compound 58, N-(3-((5-(3,4-dichlorophenyl)-2-((1-(2-(dimethylamino)ethyl)-1H-pyrazol-4-yl)amino)pyrimidin-4-yl)amino)-4-fluorophenyl)acrylamide] | 130 | 257 | 85 | 214 | 100 |  |  |  |  | 
C=CC(=O)Nc1ccc(F)c(Nc2nc(Nc3cnn(C)c3)ncc2-c2ccc(CN(C)C)c(F)c2)c1 [Compound 60, N-(3-((5-(4-((dimethylamino)methyl)-3-fluorophenyl)-2-((1-methyl-1H-pyrazol-4-yl)amino)pyrimidin-4-yl)amino)-4-fluorophenyl)acrylamide] | 170 | 150 | 1180 | 462 | 952 |  |  |  |  | 
C=CC(=O)Nc1ccc(F)c(Nc2nc(Nc3cnn(C)c3)ncc2-c2cc(F)cc(OC)c2)c1 [Compound 65, N-(4-fluoro-3-{[5-(3-fluoro-5-methoxyphenyl)-2-[(1-methyl-1H-pyrazol-4-yl)amino]pyrimidin-4-yl]amino}phenyl)prop-2-enamide] | 114 | 226 | 1070 | 304 | 112 |  |  |  |  | 
C=CC(=O)Nc1ccc(F)c(Nc2nc(Nc3cnn(C)c3)ncc2-c2ccc(N3CCOCC3)c(F)c2)c1 [Compound 76, N-[4-fluoro-3-({5-[3-fluoro-4-(morpholin-4-yl)phenyl]-2-[(1-methyl-1H-pyrazol-4-yl)amino]pyrimidin-4-yl}amino)phenyl]prop-2-enamide] | 220 | 72 | 1260 | 236 | 240 |  |  |  |  | 
C=CC(=O)Nc1ccc(F)c(Nc2nc(Nc3cnn(C)c3)ncc2-c2ccc(N3CCCC3)c(F)c2)c1 [Compound 77, N-(4-fluoro-3-((5-(3-fluoro-4-(pyrrolidin-1-yl)phenyl)-2-((1-methyl-1H-pyrazol-4-yl)amino)pyrimidin-4-yl)amino)phenyl)acrylamide] | 340 | 113 | 297 | 353 | 584 |  |  |  |  | 
C=CC(=O)Nc1ccc(F)c(Nc2nc(Nc3cnn(C)c3)ncc2-c2ccc(N3CCCCC3)c(F)c2)c1 [Compound 78, N-(4-fluoro-3-((5-(3-fluoro-4-(piperidin-1-yl)phenyl)-2-((1-methyl-1H-pyrazol-4-yl)amino)pyrimidin-4-yl)amino)phenyl)acrylamide] | 111 | 59 | 102 | 144 | 286 |  |  |  |  | 

Further molecules by falling GI50 ([1]; 72 hr, read-out: D770 IC50), results first:

GI50 ([1]; 72 hr, read-out: D770 IC50) [nM] | GI50 ([2]; 72 hr, read-out: A767 IC50) [nM] | IC50 (A431 cells; A431 cells, 72 hr, Alamar Blue) [nM] | GI50 ([3]; 72 hr, read-out: NPH IC50) [nM] | GI50 [4, 5] [nM] | SMILES | GI50 ([1]; read-out: D770 IC50, 72 hr) [nM] | GI50 ([2]; read-out: A767 IC50, 72 hr) [nM] | IC50 (A431 cells) [nM] | GI50 ([3]; read-out: NPH IC50, 72 hr) [nM] | GI50 ([4]; her2 (a775_g776insyvma) expressing ba/f3 stable cell line) [nM]
104 | 119 | 1220 | 153 | 211 | C=CC(=O)Nc1ccc(F)c(Nc2nc(Nc3cnn(C4COC4)c3)ncc2-c2ccc(F)c(Cl)c2)c1 [Compound 53, N-(3-((5-(3-chloro-4-fluorophenyl)-2-((1-(oxetan-3-yl)-1H-pyrazol-4-yl)amino)pyrimidin-4-yl)amino)-4-fluorophenyl)acrylamide] |  |  |  |  | 
102 | 108 | 343 | 56 | 123 | C=CC(=O)Nc1ccc(F)c(Nc2nc(Nc3cnn(CCN(C)C)c3)ncc2-c2ccc(Br)c(Cl)c2)c1 [Compound 89, N-(3-((5-(4-bromo-3-chlorophenyl)-2-((1-(2-(dimethylamino)ethyl)-1H-pyrazol-4-yl)amino)pyrimidin-4-yl)amino)-4-fluorophenyl)acrylamide] |  |  |  |  | 
100 | 122 | 185 | 156 | 164 | C=CC(=O)Nc1ccc(F)c(Nc2nc(Nc3cnn(C)c3)ncc2-c2ccc(Cl)c(Br)c2)c1 [Compound 90, N-(3-((5-(3-bromo-4-chlorophenyl)-2-((1-methyl-1H-pyrazol-4-yl)amino)pyrimidin-4-yl)amino)-4-fluorophenyl)acrylamide] |  |  |  |  | 
75 | 80 | 1000 | 91 | 103 | C=CC(=O)Nc1ccc(F)c(Nc2nc(Nc3cnn(CCO)c3)ncc2-c2ccc(F)c(Cl)c2)c1 [Compound 62, N-(3-((5-(3-chloro-4-fluorophenyl)-2-((1-(2-hydroxyethyl)-1H-pyrazol-4-yl)amino)pyrimidin-4-yl)amino)-4-fluorophenyl)acrylamide] |  |  |  |  | 
74 | 102 | 45 | 54 | 113 | C=CC(=O)Nc1ccc(F)c(Nc2nc(Nc3cn(C)nc3Cl)ncc2-c2ccc(Br)c(F)c2)c1 [Compound 92, N-(3-((5-(4-bromo-3-fluorophenyl)-2-((3-chloro-1-methyl-1H-pyrazol-4-yl)amino)pyrimidin-4-yl)amino)-4-fluorophenyl)acrylamide] |  |  |  |  | 
66 | 87 | 280 | 57 | 118 | C=CC(=O)Nc1ccc(F)c(Nc2nc(Nc3cnn(C)c3)ncc2-c2ccc(Br)c(Cl)c2)c1 [Compound 88, N-(3-((5-(4-bromo-3-chlorophenyl)-2-((1-methyl-1H-pyrazol-4-yl)amino)pyrimidin-4-yl)amino)-4-fluorophenyl)acrylamide] |  |  |  |  | 
61 | 104 | 554 | 95 | 159 | C=CC(=O)Nc1ccc(F)c(Nc2nc(Nc3cnn(C)c3)ncc2-c2cc(C)cc(F)c2)c1 [Compound 64, N-(4-fluoro-3-((5-(3-fluoro-5-methylphenyl)-2-((1-methyl-1H-pyrazol-4-yl)amino)pyrimidin-4-yl)amino)phenyl)acrylamide] |  |  |  |  | 
36 | 41 | 213 | 100 | 60 | C=CC(=O)Nc1cccc(Nc2nc(Nc3cnn(C)c3)ncc2-c2ccc(F)c(F)c2)c1 [Compound 67, N-(3-((5-(3,4-difluorophenyl)-2-((1-methyl-1H-pyrazol-4-yl)amino)pyrimidin-4-yl)amino)phenyl)acrylamide] |  |  |  |  | 
36 | 104 | 990 | 153 | 252 | C=CC(=O)Nc1ccc(F)c(Oc2nc(Nc3cnn(C)c3)ncc2-c2ccc(Cl)c(F)c2)c1 [Compound 98, N-(3-{[5-(4-chloro-3-fluorophenyl)-2-[(1-methyl-1H-pyrazol-4-yl)amino]pyrimidin-4-yl]oxy}-4-fluorophenyl) prop-2-enamide] |  |  |  |  | 
25 | 28 | 37 | 96 | 56 | C=CC(=O)Nc1ccc(F)c(Nc2nc(Nc3cnn(CCO)c3)ncc2-c2ccc(Br)c(F)c2)c1 [Compound 96, N-(3-((5-(4-bromo-3-fluorophenyl)-2-((1-(2-hydroxyethyl)-1H-pyrazol-4-yl)amino)pyrimidin-4-yl)amino)-4-fluorophenyl)acrylamide] |  |  |  |  | 
15 | 26 | 55 | 14 | 47 | C=CC(=O)Nc1cccc(Nc2nc(Nc3cnn(C)c3)ncc2-c2cc(F)cc(Cl)c2)c1 [Compound 66, N-(3-((5-(3-chloro-5-fluorophenyl)-2-((1-methyl-1H-pyrazol-4-yl)amino)pyrimidin-4-yl)amino)phenyl)acrylamide] |  |  |  |  | 
